Test [1] has as its target T1, LFA-1 (Homo sapiens, UniProt P05107+P20701).
T1 construct: endogenous in cells; host or cells: primary human T cells from healthy donors: PHA-induced T cell blasts, sorted EM and naive CD8 T cells, and NY-ESO-1 TCR-transduced REP T cells
Briefly: Flow cytometry of LFA-1 conformations on PHA T cell blasts. It is filed as cell-based. How it is done:
Glycolytic switch of human EM CD8 T cells (a) and naïve CD8 T cells (b) subsets upon injection of anti-CD3 Ab only, or anti-CD3 and anti-CD28 Ab, was assessed by metabolic flux analysis in medium containing either 1.2 mM Mg^2+, 0 mM Mg^2+, or medium which was reconstituted from 0 mM to 1.2 mM Mg^2+ immediately prior to activation (0→1.2 mM Mg^2+). (a) Results for human effector memory (EM) and (b) for human naïve CD8 T cells. Glycolytic switch was quantified by subtracting […] measurements. (c) Flow cytometric analysis of surface activation markers on human EM CD8 T cells 24 hours after activation by plate-bound anti-CD3 Ab and soluble anti-CD28 Ab, in 1.2 mM and 0 mM Mg^2+ media, respectively. (d) Abundance of inflammatory cytokines in corresponding EM CD8 T cell culture supernatants, determined by CBA. (e) CD11a (LFA-1) surface expression on human naïve and EM CD8 T cells as well PHA T cell blasts. Flow cytometry-based assessment of total LFA-1 expression assessed by mAb TS2/4 (f), closed conformation of αL by mAb HI111 (g), extended conformation of LFA-1 by mAb Kim127 (h), open head-piece conformation of LFA-1 by mAb m24 (i), phosphorylation of focal adhesion kinase (FAK) […] as well TNF expression (k)±TCR-induced activation in different extracellular Mg^2+ concentrations. (l) Flow cytometry-based assessment of LFA-1 with open-head piece conformation on human EM and naïve CD8 T cells using the open head-piece reporter mAb m24. (m) Assessment of glycolytic switch of EM CD8 T cells. (n) Assessment of glycolytic switch of naïve CD8 T cells. […] Naïve CD8 T cells were activated with in house generated anti-CD3/anti-CD28 coated microbeads. Polybead microspheres ([…], Polyscience […]) were incubated with 1 μg anti-CD3 Ab and 10 μg anti-CD28 Ab. […] Primary human T cells were activated for 24 h and PHA-blasts for 4 h. For evaluation of activation induced LFA-1 head-piece opening, T cells were activated for […] and anti-human CD11a/CD18 (clone m24) was directly added in medium and incubated on ice for 20 min. Cells were then washed twice in FACS Buffer and fixed in 2% PFA, incubated at room temperature for 20 min and washed with FACS Buffer before acquisition. […] For stainings with HI111, the cells were activated for 45 min, fixed with 2% PFA and subsequently stained with HI111 and washed with FACS Buffer before acquisition.
A general note: Flow cytometry measures light scatter and fluorescence of single cells or particles in a stream.

For test [2], the target named is T1, LFA-1. Briefly: LFA-1 conformations on REP T cells co-incubated with peptide-pulsed T2 target cells. It is filed as cell-based. Conditions: T2 cells pulsed with 10^−8 M 9c peptide; E:T 1:1; presence vs absence of extracellular Mg^2+. As for the experimental part: FIG. 3: Magnesium regulates LFA-1 mediated T cell activation and cytotoxicity as well BiTE- and CAR T-cell functionality. (a) Glycolytic switch of murine WT and LFA-1^-/- CTLs upon injection of anti-CD3/28 Ab in medium containing 1.2 mM Mg^2+ and 0 mM Mg^2+, presented as quantification of summarized data with n=4 mice. (b) Calcium flux in WT and LFA-1^-/- Jurkat T cells stimulated with anti-CD3 Ab in 1.2 mM and 0 mM Mg^2+ medium, respectively. Cells were loaded with Fluo4, and signal intensity as recorded by plate reader, was normalized to unstimulated baseline values. […] Quantified results of n=3 mice with 3 technical replicates each. […] The effector to target cell ratio was 3:1. Results are quantified of n=3 mice with 3 technical replicates each. (e) Representative CD11a (LFA-1) surface expression on human naïve and EM CD8 T cells, PHA T cell blasts and REP T cells, assessed by flow cytometry. […] The effector to target cell ratio was 1:1. Data is presented as quantified results of n=5 healthy donors (f, g, h), n=3 healthy donors with 2 technical replicates each or n=1 healthy donor with 4 technical replicates (j). […] The effector to target cell ratio was 1:1. Data is presented as quantified results of n=1 healthy donor with 4 technical replicates. […] (n) Representative histogram of CD11a expression on PHA-blasts, untransduced T cells as well anti-CD19 expressing CAR T cells. […] Pooled results of n=6 from 2 independent experiments are shown. (p) Abundance of IFNγ in cell culture supernatants corresponding to the conditions depicted in (o) at 24 hours was determined by ELISA (n=8, 3 independent experiments). (q) Tumor growth curves of mice placed on either Mg^2+-depleted diet or respective control diet and treated with either anti-PSMA CAR T cells, untransduced T cells or saline solution. Representative of n=2 independent experiments with n=6 mice per group. REP […] target cells in flat bottom 96 well-plate, if not indicated otherwise, at a 1:1 ratio (4-6×10^4 each). Optimal ratio had been titrated for each donor beforehand. […]

The mark [3] stands for this setting: PHA T cell blasts ±TCR-induced activation, different extracellular Mg^2+ concentrations.

T1 sequence (P20701 26-1170): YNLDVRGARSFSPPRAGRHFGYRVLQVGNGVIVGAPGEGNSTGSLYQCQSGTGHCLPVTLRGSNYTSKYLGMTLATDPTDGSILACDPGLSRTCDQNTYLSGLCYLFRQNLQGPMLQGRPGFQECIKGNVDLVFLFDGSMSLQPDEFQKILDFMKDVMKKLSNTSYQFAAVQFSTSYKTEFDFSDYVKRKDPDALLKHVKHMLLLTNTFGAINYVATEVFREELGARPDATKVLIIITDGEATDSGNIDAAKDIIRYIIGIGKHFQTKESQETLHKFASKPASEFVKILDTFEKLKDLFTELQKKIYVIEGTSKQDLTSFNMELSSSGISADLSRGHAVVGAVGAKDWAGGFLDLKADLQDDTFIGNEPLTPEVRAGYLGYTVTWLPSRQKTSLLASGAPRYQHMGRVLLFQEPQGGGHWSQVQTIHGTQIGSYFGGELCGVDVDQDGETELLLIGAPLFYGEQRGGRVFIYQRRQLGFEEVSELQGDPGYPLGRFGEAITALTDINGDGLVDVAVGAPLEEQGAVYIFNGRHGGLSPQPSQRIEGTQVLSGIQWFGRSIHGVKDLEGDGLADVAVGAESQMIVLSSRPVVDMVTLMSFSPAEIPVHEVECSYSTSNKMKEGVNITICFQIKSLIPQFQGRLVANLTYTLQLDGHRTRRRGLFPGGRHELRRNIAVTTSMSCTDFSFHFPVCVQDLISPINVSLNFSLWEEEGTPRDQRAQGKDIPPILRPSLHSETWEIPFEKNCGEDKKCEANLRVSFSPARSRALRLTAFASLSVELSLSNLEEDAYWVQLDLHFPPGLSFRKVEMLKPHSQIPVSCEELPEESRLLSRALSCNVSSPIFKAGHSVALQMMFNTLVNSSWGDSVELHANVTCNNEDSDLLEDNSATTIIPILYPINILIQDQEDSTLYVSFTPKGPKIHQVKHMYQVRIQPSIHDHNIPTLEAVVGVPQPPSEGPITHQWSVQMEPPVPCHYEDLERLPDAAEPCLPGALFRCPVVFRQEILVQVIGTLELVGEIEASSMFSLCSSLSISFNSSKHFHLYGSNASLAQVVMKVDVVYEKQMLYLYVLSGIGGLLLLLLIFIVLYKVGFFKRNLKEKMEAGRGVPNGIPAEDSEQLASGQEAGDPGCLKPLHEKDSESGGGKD
T1 sequence (P05107 23-769): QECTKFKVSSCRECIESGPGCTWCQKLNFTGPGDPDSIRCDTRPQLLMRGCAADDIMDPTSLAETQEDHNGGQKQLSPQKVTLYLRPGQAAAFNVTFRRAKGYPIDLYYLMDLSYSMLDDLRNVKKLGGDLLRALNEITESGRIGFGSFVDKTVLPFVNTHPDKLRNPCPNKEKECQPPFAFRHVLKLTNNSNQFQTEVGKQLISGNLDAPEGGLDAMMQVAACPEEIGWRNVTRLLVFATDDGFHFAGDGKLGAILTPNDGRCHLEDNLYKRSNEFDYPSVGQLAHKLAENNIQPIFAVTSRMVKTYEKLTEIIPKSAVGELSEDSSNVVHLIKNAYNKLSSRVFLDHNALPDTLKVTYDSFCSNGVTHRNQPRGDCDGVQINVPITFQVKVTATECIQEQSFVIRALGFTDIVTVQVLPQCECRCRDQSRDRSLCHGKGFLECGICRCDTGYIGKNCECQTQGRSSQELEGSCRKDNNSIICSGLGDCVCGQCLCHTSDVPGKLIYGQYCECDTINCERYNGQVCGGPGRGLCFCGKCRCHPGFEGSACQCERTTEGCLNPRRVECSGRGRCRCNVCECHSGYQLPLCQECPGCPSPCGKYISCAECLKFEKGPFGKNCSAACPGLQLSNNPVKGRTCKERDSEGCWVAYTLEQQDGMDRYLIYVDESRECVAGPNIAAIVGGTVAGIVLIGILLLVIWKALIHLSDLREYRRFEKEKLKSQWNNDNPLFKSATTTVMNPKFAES

Regarding `[Mg+2]` [Mg^2+, Magnesium], the “Extended conformation of LFA-1 (mAb KIM127)” value on LFA-1 [1] (PHA T cell blasts upon T-cell activation, increasing extracellular Mg^2+ concentrations) is recorded as “dose-dependent KIM127 signal increase”. Further, at LFA-1 [1] (PHA T cell blasts upon TCR stimulation, decreasing extracellular Mg^2+ concentrations), the “Inactive/bent LFA-1 conformation (mAb HI111)” value was “higher levels of inactive LFA-1”. Moreover, on LFA-1 [1] (setting [3]), the “Open head-piece conformation of LFA-1 (mAb m24)” value is “strongly depending on extracellular Mg^2+ concentration” and the “Total LFA-1 expression (mAb TS2/4 epitope)” value was “independent on the extracellular Mg^2+ concentration”. On LFA-1 [1] (±Mg^2+, data not shown), the “LFA-1 activation in unstimulated T cells” value was “did not differ”. On LFA-1 [2], the “Extended LFA-1 conformation on REP T cells” value was “significant increase of extended LFA-1”; the “Inactive LFA-1 with bent conformation on REP T cells” value was “reduced abundance of inactive, bent conformation”; the “LFA-1 with open head-piece on REP T cells” value is “significant increase”.

The values are drawn from patent US20240010726A1, “LFA-1 SIGNALLING MEDIATOR FOR USE IN CANCER THERAPY” (Universität Basel, priority 2020, published 2024).
